According to patent US20250179056A1, “NOVEL SULFATE SALT FORMS OF ISOCHROMAN-IMIDAZOLE STRUCTURED ALPHA-2A ADRENOCEPTOR AGONIST” (ORION CORPORATION, priority 2022, published 2025):
“Also recorded” adds a separate entry of the source.

Experiment: Slurry experiments (SLC, SL, SLT) started with crystalline form 1; wet powders analyzed by XRPD
Type: physicochemical
Conditions: for Resulting crystalline form SLC: aged at 5° C. under magnetic stirring; for Resulting crystalline form SLT: aged at 40° C. in shaker at 700 rpm; for Resulting crystalline form SL: aged at room temperature under magnetic stirring
Method: The slurry experiments (SLC, SL and SLT) were carried out with the crystalline form 1 in different conditions. 15 mg of starting material were mixed with 200 μl of solvent or solvent mixture (at a concentration of about 75 mg/ml). The mixture was homogenized by vortexing for 10 seconds. The resulting suspensions were aged at different conditions: a) at 5° C. under magnetic stirring (SLC), b) at room temperature under magnetic stirring (SL), and c) at 40° C. in the shaker at 700 rpm (SLT). During the aging time, the samples were checked regularly, and solvent was added if needed. After completing the aging time, the vials were opened, and the (wet) powders were analyzed by XRPD.

[1] = slurry in 2-Butanone, about 75 mg/ml
[2] = slurry in 2-Ethoxy ethanol, about 75 mg/ml
[3] = slurry in 2-Methyltetrahydrofuran, about 75 mg/ml
[4] = slurry in Acetone/Water (86:14 vol %), water activity 0.75, about 75 mg/ml
[5] = slurry in Acetonitrile/Water (96:4 vol %), water activity 0.60, about 75 mg/ml
[6] = slurry in Ethanol, about 75 mg/ml
[7] = slurry in Ethanol/Water (26:74 vol %), water activity >0.9, about 75 mg/ml
[8] = slurry in Methanol/Water (20:80 vol %), water activity >0.9, about 75 mg/ml
[9] = slurry in THF/Water (90:10 vol %), water activity 0.88, about 75 mg/ml
[10] = slurry in Water (water activity 1), about 75 mg/ml

COc1cccc2c1CCOC2C1=NCCN1.O=S(=O)(O)O (stereo not shown) [Form 1, 2-(5-methoxyisochroman-1-yl)-4,5-dihydro-1H-imidazole sulfate crystalline form 1]
Resulting crystalline form SLC [1]: Form 1
Resulting crystalline form SLT [1]: Form 1
Resulting crystalline form SL [1]: Form 1
Resulting crystalline form SLT [2]: Form 4
Resulting crystalline form SL [2]: Form 4
Resulting crystalline form SLC [3]: Form 1
Resulting crystalline form SLT [3]: Form 1
Resulting crystalline form SL [3]: Form 1
Resulting crystalline form SLC [4]: Form 1
Resulting crystalline form SLT [4]: Form 1
Resulting crystalline form SL [4]: Form 1
Resulting crystalline form SLC [5]: Form 1
Resulting crystalline form SLT [5]: Form 1
Resulting crystalline form SL [5]: Form 1
Resulting crystalline form SLC [6]: Form 1
Resulting crystalline form SLT [6]: Form 1
Resulting crystalline form SL [6]: Form 1
Resulting crystalline form SLC [7]: Form 2; also recorded: (+Form 1)
Resulting crystalline form SLT [7]: Form 2
Resulting crystalline form SL [7]: Form 2
Resulting crystalline form SLC [8]: Form 2
Resulting crystalline form SLT [8]: Form 2
Resulting crystalline form SL [8]: Form 2
Resulting crystalline form SLC [9]: Form 1
Resulting crystalline form SLT [9]: Form 1
Resulting crystalline form SLC [10]: Form 2
Resulting crystalline form SLT [10]: Form 2
Resulting crystalline form SL [10]: Form 2
